Data as given in patent US6753424B1, “Conjugates of DNA interacting groups with steroid hormones for use as nucleic acid transfection agents” (priority 1998, dated 2004).

Tests used:
[1] = system: GR-GFP chimera; assay: Nuclear Transfer Induction assay (NTI), monourethane ligands, HeLa cells; type: cell-based; settings: 1 hr
Experimental: Conditions: HeLa cells are transiently transfected by CaPO4 with an expression vector encoding a GR-GFP chimera (5 μg in transfection cocktail, 4 cm diameter dishes, DMEM with 3% FCS). After 24 hour expression, ligand is added for 1 hr and cells are fixed with formaldehyde (5 min 4° C.) and inspected by fluorescence microscopy. Fluorescent cells are counted and divided into different classes according to ‘cytoplasmic’ (C) versus ‘nuclear’ (N) localisation of fluorescence.
First column: “Conditions”: Name of compounds added (marked at top: ‘//ligand’), and their concentration (in parentheses) and assay number (01 through 21).
Values are given as percentage of cells displaying the corresponding localisatidn, within each tested condition the sum is 100%.

[2] = system: GR-GFP chimera; assay: Nuclear Transfer Induction assay (NTI), diurethane ligands, CV-1 cells; type: cell-based; settings: 4 hr
Experimental: Conditions: CV-1 cells are transiently transfected with DOTAP (Boehringer-Mannheim) with an expression vector encoding a GR-GFP chimera (see 8.1). After 36 hours expression, ligand is added for 4 hr and cells are fixed and counted as given in 8.1.

SMILES	C < N, percentage of cells ([1]; ligand 1.10-6M)	C << N, percentage of cells ([1]; ligand 1.10-6M)	C = N, percentage of cells ([1]; ligand 1.10-6M)	C > N, percentage of cells ([1]; ligand 1.10-6M)	C >> N, percentage of cells ([1]; ligand 1.10-6M)	C < N, percentage of cells ([1]; ligand 1.10-7M)	C << N, percentage of cells ([1]; ligand 1.10-7M)	C = N, percentage of cells ([1]; ligand 1.10-7M)	C > N, percentage of cells ([1]; ligand 1.10-7M)	C >> N, percentage of cells ([1]; ligand 1.10-7M)	C < N, percentage of cells ([2]; ligand 5.10-6M)	C << N, percentage of cells ([2]; ligand 5.10-6M)	C = N, percentage of cells ([2]; ligand 5.10-6M)	C > N, percentage of cells ([2]; ligand 5.10-6M)	C >> N, percentage of cells ([2]; ligand 5.10-6M)	C < N, percentage of cells ([2]; ligand 5.10-7M)	C << N, percentage of cells ([2]; ligand 5.10-7M)	C = N, percentage of cells ([2]; ligand 5.10-7M)	C > N, percentage of cells ([2]; ligand 5.10-7M)	C >> N, percentage of cells ([2]; ligand 5.10-7M)	further results
CC12CCC(=O)C=C1CCC1C2C(O)CC2(C)C1CC[C@]2(O)C(=O)COC(=O)NCCC(=O)O (some centres unmarked) [CL-C3-COOH, 2-carboxy-ethyl-1-carboxamicacid-cortisol-21-ester]	13%	0%	85%	2%	0%	2%	0%	43%	55%	0%	–	–	–	–	–	–	–	–	–	–	–
COC(=O)CCCCCCCCCCNC(=O)OCC(=O)[C@@]1(O)CCC2C3CCC4=CC(=O)CCC4(C)C3C(O)CC21C (some centres unmarked) [CL-C11-COOCH3, 10-carboxymethyl-n-decy-1-carboxamicacid-cortisol-21-ester]	60%	13%	24%	3%	0%	20%	0%	55%	20%	5%	–	–	–	–	–	–	–	–	–	–	–
CC1CC2C3CCC4=CC(=O)C=CC4(C)C3(F)C(O)CC2(C)C1(O)C(=O)COC(=O)NCCOC(=O)NCCCNCCCCNCCCN (centres unmarked) [DEX-C4-Sn]	–	–	–	–	–	–	–	–	–	–	27.6%	69.5%	2.9%	0%	0%	4.6%	0.6%	67.4%	15.4%	12%	C < N, percentage of cells ([2]; ligand 5.10-8M): 1.1%; C << N, percentage of cells ([2]; ligand 5.10-8M): 0%; C = N, percentage of cells ([2]; ligand 5.10-8M): 43.3%; C > N, percentage of cells ([2]; ligand 5.10-8M): 35.8%; C >> N, percentage of cells ([2]; ligand 5.10-8M): 19.8%; C < N, percentage of cells ([2]; ligand 5.10-9M): 0%; C << N, percentage of cells ([2]; ligand 5.10-9M): 0%; C = N, percentage of cells ([2]; ligand 5.10-9M): 28.5%; C > N, percentage of cells ([2]; ligand 5.10-9M): 43.8%; C >> N, percentage of cells ([2]; ligand 5.10-9M): 27.7%
Cc1oc2c(C)c3oc(=O)cc(C)c3cc2c1CNC(=O)OCCCCCCCCCCCNC(=O)OCC(=O)[C@@]1(O)[C@H](C)CC2C3CCC4=CC(=O)C=CC4(C)[C@@]3(F)C(O)CC21C (some centres unmarked) [DEX-C11-Pso]	–	–	–	–	–	–	–	–	–	–	53.1%	45%	1.9%	0%	0%	14.8%	0%	58.3%	25.7%	1.3%	C < N, percentage of cells ([2]; ligand 5.10-8M): 1.9%; C << N, percentage of cells ([2]; ligand 5.10-8M): 0%; C = N, percentage of cells ([2]; ligand 5.10-8M): 52.9%; C > N, percentage of cells ([2]; ligand 5.10-8M): 37.1%; C >> N, percentage of cells ([2]; ligand 5.10-8M): 8.1%; C < N, percentage of cells ([2]; ligand 5.10-9M): 3.6%; C << N, percentage of cells ([2]; ligand 5.10-9M): 0%; C = N, percentage of cells ([2]; ligand 5.10-9M): 34.2%; C > N, percentage of cells ([2]; ligand 5.10-9M): 52.9%; C >> N, percentage of cells ([2]; ligand 5.10-9M): 9.4%
COC(=O)CCCCCCCCCCNC(=O)OCC(=O)[C@@]1(O)[C@H](C)CC2C3CCC4=CC(=O)C=CC4(C)[C@@]3(F)C(O)CC21C (some centres unmarked) [DEX-C11-COOCH3, 10-carboxymethyl-n-decyl-1-carboxamicacid-dexamethasone-21-ester]	50%	45%	5%	0%	0%	61%	7%	29%	3%	0%	–	–	–	–	–	–	–	–	–	–	–
Cc1oc2c(C)c3oc(=O)cc(C)c3cc2c1CNC(=O)OCCCCCCNC(=O)OCC(=O)[C@@]1(O)[C@H](C)CC2C3CCC4=CC(=O)C=CC4(C)[C@@]3(F)C(O)CC21C (some centres unmarked) [DEX-C6-Pso]	–	–	–	–	–	–	–	–	–	–	10%	90%	0%	0%	0%	6%	94%	0%	0%	0%	C < N, percentage of cells ([2]; ligand 5.10-8M): 29.4%; C << N, percentage of cells ([2]; ligand 5.10-8M): 60.8%; C = N, percentage of cells ([2]; ligand 5.10-8M): 9.8%; C > N, percentage of cells ([2]; ligand 5.10-8M): 0%; C >> N, percentage of cells ([2]; ligand 5.10-8M): 0%; C < N, percentage of cells ([2]; ligand 5.10-9M): 38.3%; C << N, percentage of cells ([2]; ligand 5.10-9M): 22.6%; C = N, percentage of cells ([2]; ligand 5.10-9M): 35.7%; C > N, percentage of cells ([2]; ligand 5.10-9M): 3.5%; C >> N, percentage of cells ([2]; ligand 5.10-9M): 0%
COC(=O)CCNC(=O)OCC(=O)[C@@]1(O)[C@H](C)CC2C3CCC4=CC(=O)C=CC4(C)[C@@]3(F)C(O)CC21C (some centres unmarked) [DEX-C3-COOCH3, 2-carboxymethyl-ethyl-1-carboxamicacid-dexamethasone-21-ester]	–	–	–	–	–	25%	75%	0%	0%	0%	–	–	–	–	–	–	–	–	–	–	C < N, percentage of cells ([1]; ligand 1.10-8M): 22%; C << N, percentage of cells ([1]; ligand 1.10-8M): 78%; C = N, percentage of cells ([1]; ligand 1.10-8M): 0%; C > N, percentage of cells ([1]; ligand 1.10-8M): 0%; C >> N, percentage of cells ([1]; ligand 1.10-8M): 0%
COC(=O)CCNC(=O)OCC(=O)[C@@]1(O)CCC2C3CCC4=CC(=O)CCC4(C)C3C(O)CC21C (some centres unmarked) [CL-C3-COOCH3, 2-carboxymethyl-ethyl-1-carboxamicacid-cortisol-21-ester]	55%	42%	2%	1%	0%	50%	18%	21%	1%	0%	–	–	–	–	–	–	–	–	–	–	–
